Source: patent US20250051321A1, “TRICYCLIC DERIVATIVE AND PREPARATION METHOD THEREFOR AND APPLICATION THEREOF” (SHANGHAI JEMINCARE PHARMACEUTICAL CO., LTD., priority 2021, published 2025)
Where two headings read alike, the source gives them in different places.

Key:
ATX = ATX (Homo sapiens (Human), UniProt Q13822); assay: ATX enzyme inhibition assay (Amplex UltraRed/choline oxidase/HRP, 16:0 Lyso PC substrate); assay type: biochemical
Procedure: All compounds were prepared as a 10 mM DMSO stock solution.
Solutions at pH 8.5 and pH 7.5 were prepared respectively with the following formulations:
All compounds, including the positive control compound, were diluted 5-fold from 10 mM to 2 mM with DMSO in the first step. The mixture was then diluted to 100 μM with 1× assay buffer.
3. Separate Detection of Compounds with 1× Assay Buffer at Two pH Values:
a) 5 μL of 10× compound diluent was added to a 384-well plate (Greiner 781209) using a motorized pipette (see the “experimental preparation” step). 5 μL of 1× assay buffer containing 5% DMSO was added to both negative and positive control wells. The plate was centrifuged at 300 rpm for 1 minute at room temperature.
b) 2× ATX ([…]) was prepared with 1× assay buffer, and 25 μL of 2× ATX was added to the plate using a motorized pipette. 25 μL of 1× assay buffer was added to the negative control wells and 25 μL of 2× ATX was added to the positive control wells. The plate was centrifuged at 300 rpm for 1 minute at room temperature.
The plate was incubated at room temperature for 10 minutes.
c) 2.5× working solution containing Amplex UltraRed reagent (125 μM), HRP (2.5 U/mL), choline oxidase (1.25 U/mL), and 16:0 Lyso PC (75 μM) was prepared with 1× assay buffer. 20 μL of 2.5× working solution was added to all reaction wells using a motorized pipette. The plate was centrifuged at 300 rpm for 1 minute at room temperature.
d) The plate was detected by SpectraMax with the following procedures: fluorescence mode; excitation at 550 nm; emission at 590 nm; kinetics; read once every 2 minutes; read continuously for 60 minutes.
The calculation formula of % inhibition (i.e., % inhibition rate) was as follows: […]
V0: X-axis is taken as 0 to 30 minutes, Y-axis is taken as fluorescence readings, and the slope corresponding to the straight line fitted by the software GraphPad Prism 8 is the initial response rate.
V0max: Average V0 of the positive control wells in the plate.
V0min: Average V0 of the negative control wells in the plate.
The IC50 of the compounds was calculated from a nonlinear regression line (dose-initial response rate) fitted by % inhibition and log value of compound concentration using the software GrahPad Prism 8.

[1] = system: plasma LPA 18:1 and LPA 18:2; assay: Human plasma ex vivo assay (LPA 18:1 / 18:2 by LC-MS/MS); assay type: biochemical; conditions: 37° C., 2 hours
Procedure: The collected plasma was centrifuged at 4000 rpm for 15 minutes at 4° C. The supernatant was aliquoted into a 96-well plate (25 μL per well), sealed, and frozen at −80° C. for further use.
LPA 17:0 powder was dissolved in a mixed solution of water: isopropanol: formic acid (1:1:1) to a final concentration of […]. The mixture was aliquoted and frozen at −20° C.
1 volume of formic acid was added to 1000× methanol, mixed well, and stored at 4° C. a) The 96-well plate containing frozen plasma was removed from the −80° C. freezer and thawed on ice at room temperature. b) 6 μL of 50× LPA 17:0 (internal standard) and 264 μL of 0.1% FA were added to a clean well of the 96-well plate; the final concentration of LPA 17:0 (internal standard) was 50 nM. c) 6× compound was 1:3 serially diluted to a total of 8 concentrations, and 5 μL of the compound per well was added to the 96-well plate containing plasma. The maximum final concentration of the compound was 10 μM, and the final concentration of DMSO was 0.1%. The plate was centrifuged at 300 rpm for 30 seconds. The DMSO control sample reacted for 0 hours was used as the minimum value (Min), and the DMSO control sample reacted for 2 hours was used as the maximum value (Max). […]
d) The DMSO sample reacted for 0 hours was rapidly transferred to 0.1% FA solution containing the internal standard in step b) to terminate the reaction and precipitate plasma proteins. e) The 96-well plate containing plasma and compounds was rapidly incubated in a 37° C. incubator for 2 hours. After the incubation, 6 μL of 10× LPA 17:0 and 264 μL of 0.1% FA were added to each well to terminate the reaction and precipitate plasma proteins. […]
f) All the samples were mixed well with a pipette, and centrifuged at 4000 rpm for 10 minutes at 4° C. 150 μL of the supernatant was added to a 96-well U-bottom plate (Thermo 267245), sealed with silica gel, and then loaded. The contents of LPA 18:1 and LPA 18:2 in the samples were detected by LC-MS/MS system.
LPA 18:1(or 18:2) relative content=LPA 18:1(or 18:2) peak area/LPA 17:0 peak area Percentage reduction (%) in plasma LPA18:1(or 18:2)=(Max−X)/(Max−Min)*100 Max: LPA 18:1 (or 18:2) relative content of the DMSO sample reacted for 2 hours Min: LPA 18:1 (or 18:2) relative content of the DMSO sample reacted for 0 hours X: LPA 18:1 (or 18:2) relative content of the sample after compound treatment for 2 hours The IC50 of the compounds was calculated by fitting a nonlinear regression through percentage reduction in plasma LPA 18:1 (or 18:2) and log value of compound concentration using the software GraphPad Prism 8.
Y=Bottom+(Top−Bottom)/(1+10^((Log IC50−X)*Hill Slope))

[2] = assay buffer pH 8.5, read-out: IC50 (nM) pH 8.5
[3] = LPA 18:1, read-out: Human plasma ex vivo assay IC50 (18:1 LPA)
[4] = LPA 18:2, read-out: Human plasma ex vivo assay IC50 (18:2 LPA)
[5] = assay buffer pH 7.5, read-out: IC50 (nM) pH 7.5

Row | Structure (SMILES) | IC50 (ATX; [2]) | IC50 [1, 3] | IC50 [1, 4] | IC50 (ATX; [5])
1 | CN(c1nc(-c2ccc(F)cc2)c(C#N)s1)c1c2c(nc3c(F)cc(N4CC5(CN(C(=O)C6(O)CCOCC6)C5)C4)cc13)[C@@H](O)CC2 (single isomer, unassigned) [Example E15-a] | 14.9 nM | 392 nM | 388 nM | –
2 | CN(c1nc(-c2ccc(F)cc2)c(C#N)s1)c1c2c(nc3c(F)cc(N4CCN(CC(=O)N5CC(C)(O)C5)CC4)cc13)[C@@H](O)CC2 (single isomer, unassigned) [Example E10-a] | 17.9 nM | 384 nM | 430 nM | –
3 | CN(c1nc(-c2ccc(F)cc2)c(C#N)s1)c1c2c(nc3c(F)cc(N4CCN(S(C)(=O)=O)[C@H](CO)C4)cc13)CCC2 [Example B3] | 41.2 nM | 170 nM | 165 nM | 171 nM
4 | CN(c1nc(-c2ccc(F)cc2)c(C#N)s1)c1c2c(nc3c(F)cc(N4CC5(CN(CC(=O)N6CC(O)C6)C5)C4)cc13)CC2 [Example A17] | 48.7 nM | 164 nM | 172 nM | –
5 | CN(c1nc(-c2ccc(F)cc2)c(C#N)s1)c1c2c(nc3c(F)cc(N4CC5(CN(CC(=O)N6CC(CO)C6)C5)C4)cc13)CC2 [Example A18] | 61.1 nM | 162 nM | 192 nM | 228 nM
6 | CN(c1nc(-c2ccc(F)cc2)c(C#N)s1)c1c2c(nc3c(F)cc(N4CCN(CC(=O)N5CC(C)(O)C5)CC4)cc13)[C@H](O)CC2 (single isomer, unassigned) [Example E10-b] | 14.4 nM | 263 nM | 261 nM | –
7 | CN(c1nc(-c2ccc(F)cc2)c(C#N)s1)c1c2c(nc3ncc(N4CC5(CN(C(=O)[C@@H]6CCOC6)C5)C4)cc13)CCC2 [Example C4] | 27.4 nM | 114 nM | 89.2 nM | 38.6 nM
8 | CN(c1nc(-c2ccc(F)cc2)c(C#N)s1)c1c2c(nc3c(F)cc(N4CCC5(CCN(C(=O)[C@@H]6CCOC6)C5)C4)cc13)CCC2 (stereo partly drawn) [Example C14] | 83.1 nM | 310 nM | 379 nM | 334 nM
9 | CN(c1nc(-c2ccc(F)cc2)c(C#N)s1)c1c2c(nc3ccc(N4CCN(CC(=O)N5CC(O)C5)CC4)nc13)CCO2 [Example A12] | 22.3 nM | 64.5 nM | 91.6 nM | 219 nM
10 | CN(c1nc(-c2ccc(F)cc2)c(C#N)s1)c1c2c(nc3ccc(N4CCN(CC(=O)N5CC(O)C5)CC4)nc13)CCC2 [Example A10] | 60.7 nM | 192 nM | 157 nM | 559 nM
11 | CN(c1nc(-c2ccc(F)cc2)c(C#N)s1)c1c2c(nc3c(F)cc(N4CCC5(CCN(C(=O)[C@@H]6CCOC6)CC5)C4)cc13)CCC2 [Example C15] | 60.6 nM | 285 nM | 326 nM | 232 nM
12 | CN(c1nc(-c2ccc(F)cc2)c(C#N)s1)c1c2c(nc3c(F)cc(N4CC5(CN(CC(=O)N6CC(O)C6)C5)C4)cc13)COC2 [Example A24] | 181 nM | 466 nM | 486 nM | –
13 | CN(c1nc(-c2ccc(F)cc2)c(C#N)s1)c1c2c(nc3c(F)cc(N4CC5(CN(C(=O)C(C)(C)O)C5)C4)cc13)C(O)CC2 (stereo not drawn) [Example E16] | 16.8 nM | 410 nM | 436 nM | –
14 | C[C@@H]1CN(CC(=O)N2CC(O)C2)CCN1c1cc(F)c2nc3c(c(N(C)c4nc(-c5ccc(F)cc5)c(C#N)s4)c2c1)CC[C@H]3O (single isomer, unassigned) [Example E6-b] | 14 nM | 387 nM | 431 nM | –
15 | CN(c1nc(-c2ccc(F)cc2)c(C#N)s1)c1c2c(nc3c(F)cc(N4CCN(CC(=O)N5CC(O)C5)CC4)cc13)CCC2 [Example A4] | 52.1 nM | 160 nM | 176 nM | 174 nM
16 | CN(c1nc(-c2ccc(F)cc2)c(C#N)s1)c1c2c(nc3c(F)cc(N4CCN(CC(=O)N5CC(O)C5)CC4)cc13)COC2 [Example A19] | 52.7 nM | 118 nM | 132 nM | 413 nM
17 | CN(c1nc(-c2ccc(F)cc2)c(C#N)s1)c1c2c(nc3c(F)cc(N4CCC5(CC4)CN(CC(=O)N4CC(O)C4)C5)cc13)CCC2 [Example A6] | 44.7 nM | 182 nM | 184 nM | 318 nM
18 | C[C@H]1CN(CC(=O)N2CC(O)C2)CCN1c1cc(F)c2nc3c(c(N(C)c4nc(-c5ccc(F)cc5)c(C#N)s4)c2c1)CC[C@@H]3O (single isomer, unassigned) [Example E7-a] | 15.2 nM | 369 nM | 351 nM | –
19 | CN(c1nc(-c2ccc(F)cc2)c(C#N)s1)c1c2c(nc3c(F)cc(N4CCN(CC(=O)N5CC(CO)C5)CC4)cc13)CCC2 [Example A5] | 32.8 nM | 200 nM | 239 nM | 112 nM
20 | CN(c1nc(-c2ccc(F)cc2)c(C#N)s1)c1c2c(nc3ccc(N4CCN(S(C)(=O)=O)C[C@@H]4CO)cc13)CCC2 [Example B1] | 112 nM | 176 nM | 169 nM | –
21 | CN(c1nc(-c2ccc(F)cc2)c(C#N)s1)c1c2c(nc3ccc(N4CCN(CC(=O)N5CC(O)C5)CC4)cc13)CCO2 [Example A3] | 27.8 nM | 109 nM | 103 nM | 214 nM
22 | CN(c1nc(-c2ccc(F)cc2)c(C#N)s1)c1c2c(nc3c(F)cc(N4CC5(CN(C(=O)[C@]6(O)CCOC6)C5)C4)cc13)[C@H](O)CC2 (single isomer, unassigned) [Example E19-1a] | 22.9 nM | 207 nM | 362 nM | –
23 | CN(c1nc(-c2ccc(F)cc2)c(C#N)s1)c1c2c(nc3c(F)cc(N4CCN(C(=O)[C@H]5CCOC5)CC4)cc13)CCC2 [Example C7] | 193 nM | 354 nM | 401 nM | 1140 nM
24 | CN(c1nc(-c2ccc(F)cc2)c(C#N)s1)c1c2c(nc3cnc(N4CCN(CC(=O)N5CC(O)C5)CC4)cc13)CCC2 [Example A20] | 84 nM | 170 nM | 203 nM | 645 nM
25 | CN(c1nc(-c2ccc(F)cc2)c(C#N)s1)c1c2c(nc3c(F)cc(N4CC5(CN(C(=O)C6CCOCC6)C5)C4)cc13)C(O)CC2 (stereo not drawn) [Example E14] | 17.3 nM | 281 nM | 651 nM | –
26 | CN(c1nc(-c2ccc(F)cc2)c(C#N)s1)c1c2c(nc3c(F)cc(N4CCN(C(=O)[C@@H]5CCOC5)CC4)cc13)CCC2 [Example C6] | 196 nM | 232 nM | 264 nM | 1230 nM
